This test relates to antigen induced bronchospasm in passively sensitized guinea pigs. Kind of test: Inhibition of antigen induced bronchospasm (Br Sp) in passively sensitized guinea pigs. Type of test: in vivo, guinea pig. The conditions noted are these: Cavia porcellus, po, 0.05 h, 60 min before antigen, 3 min after antigen; for inhibition in vivo at 0.38 mg/kg: 0.38 mg/kg p.o.; for inhibition in vivo at 0.75 mg/kg: 0.75 mg/kg p.o. As for the experimental part: Specifically, tests were run as follows: […] Equal volumes of saline solution of antigen (5 mg/ml) and Freund's complete adjuvant were emulsified and 0.15 ml injected into each hind foot of adult male guinea pigs (Davies and Johnson: Int. Arch. Allergy 41,648-654 (1971)). The animals were bled and the pooled serum stored at -20° C. Passive Sensitization Injections of 0.5 ml antiserum of 1:50 dilution were given i.v. 24-48 h before challenge. Guinea pigs were anaesthetized with phenobarbital sodium (40 mg/kg i.p.). Cannulae were tied into the trachea and the jugular vein and the lung inflated with a pump at a rate of 72 strokes/min and a constant stroke volume of 6-8 ml. Bronchospasm, provoked by injecting ovalbumin i.v. was measured as described by Konzett, H. and R. Rossler, "Versuchsanordnung su Untersuchungen an der Bronchialmuskulatur" Naunyn-Schmiedebergs, Arch. exp. Path. Pharmak. 195, 71-74 (1940) and modified by Collier, […] and M. Schachter: "The Bronchoconstrictor Action of Bradykinin in the Guinea-Pig" Brit. J. Pharmacol. 15, 290 (1960). The drugs were applied per os 60 minutes before the antigen. For calculation the following formula was used: % Bronchospasm (b-a)/(m-a)×100 b=Bronchospasm after antigen injection, measured in mm from tracing m=maximum height of tracing in mm with arm of the tracheacannula clamped a=pre injection height of the tracing in mm % inhibition of bronchospasm was calculated by comparing control groups with drug pretreated groups 3 minutes after antigen application.

Molecules are shown by their SMILES. Counter-ions that a name gives are not always drawn.

Usually inhibition in vivo stands for the drop in the measured response relative to a control, in per cent. As for `O=C(NC1CCN(CCCOc2ccc3c4c(c(=O)oc3c2)CCC4)CC1)c1ccccc1` [Example 1, 7-[3-(4-Benzamidopiperidino)-propoxy]-2,3-dihydrocyclopenta[c][1]benzopyran-4(1H)one hydrochloride], the inhibition in vivo at 0.38 mg/kg was found to be 47%.
Take `O=C(NC1CCN(CCCOc2ccc3c4c(c(=O)oc3c2)CCC4)CC1)c1ccc(F)cc1` [Example 2, 2,3-dihydro-7-{3-[4-(4-fluorobenzamido)-piperidino]-propoxy}-cyclopenta[c][1]benzopyran-4(1H)-one hydrochloride]: the inhibition in vivo at 0.38 mg/kg was determined as 67%.
For the molecule `Cc1ccccc1C(=O)NC1CCN(CCCOc2ccc3c4c(c(=O)oc3c2)CCC4)CC1` [Example 4, 2,3-dihydro-7-{3-[4-(2-methylbenzamido)-piperidino]-propoxy}-cyclopenta[c][1]benzopyran-4(1H)-one], the inhibition in vivo at 0.75 mg/kg amounted to 76%.
For `O=C(Cc1ccccc1)NC1CCN(CCCOc2ccc3c4c(c(=O)oc3c2)CCC4)CC1` [Example 8, 2,3-dihydro-7-[3-(4-phenylacetamido-piperidino)-propoxy]-cyclopenta-[c][1]benzopyran-4(1H)-one], the inhibition in vivo at 0.75 mg/kg worked out at 70%.
On to `CC(=O)c1c(OCCCN2CCC(NC(=O)c3ccccc3)CC2)ccc2c3c(c(=O)oc12)CCC3` [Example 14, 6-acetyl-7-[3-(4-benzamido-piperidino)-propoxy]-2,3-dihydro-cyclopenta[c][1]benzopyran-4(1H)-one], for which the inhibition in vivo at 0.38 mg/kg turned out to be 79%.
With `O=C(NC1CCN(CCCOc2ccc3c4c(c(=O)oc3c2)CCCC4)CC1)c1ccc(F)cc1` [Example 17, 3-{3-[4-(4-fluorobenzamido)-piperidino]-propoxy}-7,8,9,10-tetrahydro-6H--dibenzo[b,d]pyran-6-one hydrochloride], the inhibition in vivo at 0.38 mg/kg was found to be 58%.
On to `COc1ccc(C(=O)NC2CCN(CCCOc3ccc4c5c(c(=O)oc4c3)CCCC5)CC2)cc1` [Example 18, 3-{3-[4-(4-methoxybenzamido)-piperidino]-propoxy}-7,8,9,10-tetrahydro-6H--dibenzo[b,d]-pyran-6-one], for which the inhibition in vivo at 0.38 mg/kg amounted to 35% and the inhibition in vivo at 0.75 mg/kg is 87%.
Consider `Cc1ccccc1C(=O)NC1CCN(CCCOc2ccc3c4c(c(=O)oc3c2)CCCC4)CC1` [Example 21, 3-{3-[4-(2-methyl-benzamido)-piperidino]-propoxy}-7,8,9,10-tetrahydro-6H--dibenzo[b,d]pyran-6-one], for which the inhibition in vivo at 0.38 mg/kg was 51% and the inhibition in vivo at 0.75 mg/kg was 78%.
As to `CC(C)(C)NCC(O)c1cc(O)cc(O)c1` (stereo not drawn) [Terbutalin, reference compound], the inhibition in vivo at 0.1 mg/kg (0.1 mg/kg p.o.) came out at 12%. Besides, where the note is “1.0 mg/kg p.o.”, the inhibition in vivo at 1 mg/kg is 52%.
